Data set [1] relates to A549 cell line. Description: Cytotoxicity, MTT assay, A549 cells. To be noted: Homo sapiens, A549, 24 h, read-out: % Cytotoxicity A549 (100 μΜ).
Description: (§1) The determination of the cell viability of HaCaT cells and the cell toxicity of A549 and A375 cell lines was performed according to Myriagkou et al. [57], via the MTT (3-(4,5-dimethylthiazol-2-yl)-2,5-diphenyltetrazolium bromide) assay. In a 96-well plate, cells were seeded at specific concentrations (30 × 10^4 cells/mL for HaCaT cells and 20 × 10^4 cells/mL for A549 and A375 cells) and incubated (37 °C, 5% CO2) for 24 h. Following this first incubation period, solutions of the tested compounds at various concentrations were added to the cells, and the plates were incubated for an additional 24 h. Upon the second incubation period, the appropriate volume of MTT solution (1 mg/mL in PBS, filtrated through a 0.22-μm filter) was added to each well, and the plate was incubated for 4 h, during which formazan crystals were formed. The crystals were dissolved by addition of 100 μL od DMSO in each cell and after 30 min of stirring, the absorbance was recorded at 450 nm using a microplate reader. All tests were undertaken on three replicates and compared to the control (untreated cells), the blank (medium), and the reference control (cells treated with 100 μM silibinin).
(§2) The cytotoxicity of the novel compounds was also measured via the mehtylthiazol tetrazolium (MTT) assay.
Data set [2] addresses T1, soybean lipoxygenase (LOX) (Glycine max, UniProt P08170).
T1 sequence (P08170 1-839): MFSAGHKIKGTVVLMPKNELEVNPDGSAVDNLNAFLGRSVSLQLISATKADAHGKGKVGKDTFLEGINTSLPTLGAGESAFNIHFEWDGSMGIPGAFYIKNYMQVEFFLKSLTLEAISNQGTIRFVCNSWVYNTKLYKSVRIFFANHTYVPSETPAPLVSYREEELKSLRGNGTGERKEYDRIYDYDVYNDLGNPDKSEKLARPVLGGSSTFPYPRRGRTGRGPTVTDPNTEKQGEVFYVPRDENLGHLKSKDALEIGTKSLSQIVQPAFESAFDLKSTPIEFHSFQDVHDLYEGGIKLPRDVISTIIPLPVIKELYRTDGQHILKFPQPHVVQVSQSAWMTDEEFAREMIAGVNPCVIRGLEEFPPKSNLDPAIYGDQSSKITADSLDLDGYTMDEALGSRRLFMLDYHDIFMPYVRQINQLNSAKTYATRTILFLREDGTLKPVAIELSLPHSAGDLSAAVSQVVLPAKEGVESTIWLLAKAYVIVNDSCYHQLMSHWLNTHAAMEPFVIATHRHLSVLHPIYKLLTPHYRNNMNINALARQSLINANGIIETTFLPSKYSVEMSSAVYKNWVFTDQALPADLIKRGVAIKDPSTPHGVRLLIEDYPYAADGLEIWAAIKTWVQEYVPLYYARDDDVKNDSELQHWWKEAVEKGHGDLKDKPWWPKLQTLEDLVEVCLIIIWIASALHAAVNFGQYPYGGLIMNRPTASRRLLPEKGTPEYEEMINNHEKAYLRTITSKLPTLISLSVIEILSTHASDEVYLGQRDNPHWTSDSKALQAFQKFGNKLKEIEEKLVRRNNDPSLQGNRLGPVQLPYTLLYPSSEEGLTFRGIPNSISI
Description: Soybean LOX inhibition in vitro. The class given is biochemical. To be noted: for inhibition at 100 µM: 100 μM (0.1 mM), read-out: Inhibition of LOX (% at 100 μΜ). On the procedure:
The compounds were diluted in 0.1% DMSO under sonification in an appropriate buffer in several dilutions. Statistical comparisons were made using Student’s t-test. A statistically significant difference was defined as p < 0.05.
The determination of the inhibition of soybean LOX for the synthesized compounds was performed according to Hadjipavlou-Litina et al.. The tested compounds were incubated at room temperature with sodium linoleate (0.1 mM) and 0.2 mL of enzyme solution (1/9 × 10^−4 w/v in saline). The method was based on the conversion of sodium linoleate to 13-hydroperoxylinoleic acid at 234 nm. In order to determine the […] values, different concentrations were used.
As evidence of anti-inflammatory activity, the quinolinone derivatives were examined for their ability to inhibit soybean lipoxygenase (LOX). LOX catalyzes the cleavage of arachidonic acid to leukotrienes that are found to play a crucial role in the pathogenesis of some inflammatory diseases.

The test system of data set [3] is A375 cell line. Description: Cytotoxicity, MTT assay, A375 cells. To be noted: Homo sapiens, A-375, 24 h, read-out: % Cytotoxicity A375 (100 μΜ).
Description: as §1, §2
Data set [4] can be described thus: Inhibition of linoleic acid peroxidation induced by AAPH radical. To be noted: 100 μM, 37 °C, pH 7.4. Here is the method:
The in vitro assays were performed at a concentration of 100 µM (a 10 mM stock solution in DMSO was used, from which several dilutions were made for the determination of IC50 values), at least in triplicate, and the standard deviation of absorbance was less than 10% of the mean. The compounds were diluted in 0.1% DMSO under sonification in an appropriate buffer in several dilutions. Statistical comparisons were made using Student’s t-test. A statistically significant difference was defined as p < 0.05. The results were compared to the corresponding reference compounds.
The determination of the ability of the synthesized compounds to inhibit linoleic acid peroxidation induced by the radical initiator 2,2-Azobis(2-amidinopropane) dihydrochloride (AAPH) was performed according to Hadjipavlou-Litina et al.. Ten microliters of the 16 mM sodium linoleate solution were added to the UV cuvette containing 0.93 mL of a 0.05 M phosphate buffer, pH 7.4, pre-thermostated at 37 °C. The oxidation reaction was initiated at 37 °C under air by the addition of 50 µL of a 40 mM AAPH solution, which was used as a free radical initiator. Oxidation was carried out in the presence of aliquots (10 µL) in the assay without antioxidants and monitored at 234 nm. Lipid oxidation was recorded in the presence of the same level of DMSO served as a negative control. results are compared to the appropriate standard compound Trolox.
In an attempt to assess the in vitro antioxidant potential of the synthesized compounds, their inhibitory activity against lipid peroxidation of linoleic acid sodium salt was examined, induced by AAPH radical under atmospheric oxygen at 37 °C. The anti-lipid peroxidation was recorded with UV spectrophotometrically. The assay is a quick and widely used method for the assessment of antioxidant activity.

The nature of data set [5]: in vitro. To be noted: human.
Description: as §1, §2
The nature of data set [6]: Cell viability, MTT assay, HaCaT cells. To be noted: human.
Description: as §1, §2

`C#CCNC(=O)c1c(O)c2ccccc2n(CCCc2ccccc2)c1=O` [4f, 4-hydroxy-2-oxo-1-(3-phenylpropyl)-N-(prop-2-yn-1-yl)-1,2-dihydroquinoline-3-carboxamide]: the cytotoxicity at 100 µM in data set [1] and in data set [3] was 0% throughout. Besides, in data set [2], the inhibition at 100 µM turned out to be 49.3%. The “Inhibition of Linoleic Acid Peroxidation (% at 100 μΜ)” value (“Inhibition … (% at 100 μΜ)” for short) in data set [4] was 81.1%. In data set [5], this compound gave a viability at 24 h, 100 µM of 76.9%.

Turning to `CC(C)=CCn1cc(CNC(=O)c2c(O)c3ccccc3n(CC=Cc3ccccc3)c2=O)nn1` [5h, 1-cinnamyl-4-hydroxy-N-((1-(3-methylbut-2-en-1-yl)-1H-1,2,3-triazol-4-yl)methyl)-2-oxo-1,2-dihydroquinoline-3-carboxamide], the cytotoxicity at 100 µM in data set [1] and in data set [3] was 0% in each case. In addition, the viability at 24 h, 100 µM in data set [6] was determined as 98.9%. In data set [2], the inhibition at 100 µM was 44.5%. Moreover, in data set [4], the “Inhibition … (% at 100 μΜ)” value came to 18.7%.

With `CC(C)=CCn1cc(CNC(=O)c2c(O)c3ccccc3n(Cc3ccccc3)c2=O)nn1` [5j, 1-benzyl-4-hydroxy-N-((1-(3-methylbut-2-en-1-yl)-1H-1,2,3-triazol-4-yl)methyl)-2-oxo-1,2-dihydroquinoline-3-carboxamide], the cytotoxicity at 100 µM in data set [1] is 18.8%; in data set [3] it was 0%. In data set [6], this compound came in with a viability at 24 h, 100 µM of 100%. The IC50 in data set [2] (sodium linoleate substrate) was 41 µM. In data set [4], the “Inhibition … (% at 100 μΜ)” value turned out to be 92.0%.

The values are drawn from article PMC12839112, “Synthesis and Bioactivity Assessment of Novel Quinolinone–Triazole Hybrids” (Biomolecules, 2025).
